Common to all, as to assay: KinomeScan kinase panel, single concentration 10 µM
Holding throughout (type): binding

Assay [1] deals with T1, KinomeScan kinase panel (Homo sapiens, UniProt Q00526).
T1 construct: purchased DiscoveRx (KinomeScan)
The following applies: CDK3, 10 µM.

For assay [2], the target named is T2, KinomeScan kinase panel (Homo sapiens, UniProt Q9UM73).
T2 construct: purchased DiscoveRx (KinomeScan)
The following applies: ALK, 10 µM; read-out: score (%).

Assay [3] has as its target T3, KinomeScan kinase panel (Homo sapiens, UniProt Q07912).
T3 construct: purchased DiscoveRx (KinomeScan)
The following applies: read-out: score (%).

The target in assay [4] is T4, KinomeScan kinase panel (Homo sapiens, UniProt Q14289).
T4 construct: purchased DiscoveRx (KinomeScan)
The following applies: read-out: score (%).

Assay [5] concerns the target T5, KinomeScan kinase panel (Homo sapiens, UniProt Q8TD19).
T5 construct: purchased DiscoveRx (KinomeScan)
T5 sequence (Q8TD19 1-979): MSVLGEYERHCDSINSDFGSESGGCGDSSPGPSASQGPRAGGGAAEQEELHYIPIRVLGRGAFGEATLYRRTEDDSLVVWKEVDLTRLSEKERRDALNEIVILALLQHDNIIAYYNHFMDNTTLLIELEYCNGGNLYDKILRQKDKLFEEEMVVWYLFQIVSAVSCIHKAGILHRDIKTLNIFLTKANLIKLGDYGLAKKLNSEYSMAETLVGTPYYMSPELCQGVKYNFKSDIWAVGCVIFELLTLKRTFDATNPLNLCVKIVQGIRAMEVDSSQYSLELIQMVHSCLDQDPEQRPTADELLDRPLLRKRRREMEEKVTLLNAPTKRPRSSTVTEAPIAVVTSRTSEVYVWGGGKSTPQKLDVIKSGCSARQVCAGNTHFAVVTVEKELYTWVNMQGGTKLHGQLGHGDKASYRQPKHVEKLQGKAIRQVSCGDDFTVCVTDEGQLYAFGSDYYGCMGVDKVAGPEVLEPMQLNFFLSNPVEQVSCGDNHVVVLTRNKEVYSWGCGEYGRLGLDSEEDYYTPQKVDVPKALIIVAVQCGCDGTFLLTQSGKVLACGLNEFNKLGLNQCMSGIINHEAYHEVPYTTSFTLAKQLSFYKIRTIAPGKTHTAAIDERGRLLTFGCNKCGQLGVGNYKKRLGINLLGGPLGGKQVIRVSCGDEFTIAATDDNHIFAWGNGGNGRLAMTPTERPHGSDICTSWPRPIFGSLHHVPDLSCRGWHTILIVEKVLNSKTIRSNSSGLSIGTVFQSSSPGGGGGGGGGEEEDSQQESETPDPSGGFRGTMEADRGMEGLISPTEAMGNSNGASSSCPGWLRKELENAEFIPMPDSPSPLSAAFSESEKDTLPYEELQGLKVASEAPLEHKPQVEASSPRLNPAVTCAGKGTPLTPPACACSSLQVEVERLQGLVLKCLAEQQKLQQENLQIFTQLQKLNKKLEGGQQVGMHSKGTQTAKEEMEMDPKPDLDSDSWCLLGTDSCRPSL
The following applies: NEK9, 10 µM; read-out: score (%).

Assay [6] addresses T6, KinomeScan kinase panel (Homo sapiens, UniProt P00519, M351T).
T6 construct: purchased DiscoveRx (KinomeScan)
As to conditions: 10 µM, read-out: score (%).

The target in assay [7] is T7, KinomeScan kinase panel (Homo sapiens, UniProt Q8IYT8).
T7 construct: purchased DiscoveRx (KinomeScan)
T7 sequence (Q8IYT8 1-1036): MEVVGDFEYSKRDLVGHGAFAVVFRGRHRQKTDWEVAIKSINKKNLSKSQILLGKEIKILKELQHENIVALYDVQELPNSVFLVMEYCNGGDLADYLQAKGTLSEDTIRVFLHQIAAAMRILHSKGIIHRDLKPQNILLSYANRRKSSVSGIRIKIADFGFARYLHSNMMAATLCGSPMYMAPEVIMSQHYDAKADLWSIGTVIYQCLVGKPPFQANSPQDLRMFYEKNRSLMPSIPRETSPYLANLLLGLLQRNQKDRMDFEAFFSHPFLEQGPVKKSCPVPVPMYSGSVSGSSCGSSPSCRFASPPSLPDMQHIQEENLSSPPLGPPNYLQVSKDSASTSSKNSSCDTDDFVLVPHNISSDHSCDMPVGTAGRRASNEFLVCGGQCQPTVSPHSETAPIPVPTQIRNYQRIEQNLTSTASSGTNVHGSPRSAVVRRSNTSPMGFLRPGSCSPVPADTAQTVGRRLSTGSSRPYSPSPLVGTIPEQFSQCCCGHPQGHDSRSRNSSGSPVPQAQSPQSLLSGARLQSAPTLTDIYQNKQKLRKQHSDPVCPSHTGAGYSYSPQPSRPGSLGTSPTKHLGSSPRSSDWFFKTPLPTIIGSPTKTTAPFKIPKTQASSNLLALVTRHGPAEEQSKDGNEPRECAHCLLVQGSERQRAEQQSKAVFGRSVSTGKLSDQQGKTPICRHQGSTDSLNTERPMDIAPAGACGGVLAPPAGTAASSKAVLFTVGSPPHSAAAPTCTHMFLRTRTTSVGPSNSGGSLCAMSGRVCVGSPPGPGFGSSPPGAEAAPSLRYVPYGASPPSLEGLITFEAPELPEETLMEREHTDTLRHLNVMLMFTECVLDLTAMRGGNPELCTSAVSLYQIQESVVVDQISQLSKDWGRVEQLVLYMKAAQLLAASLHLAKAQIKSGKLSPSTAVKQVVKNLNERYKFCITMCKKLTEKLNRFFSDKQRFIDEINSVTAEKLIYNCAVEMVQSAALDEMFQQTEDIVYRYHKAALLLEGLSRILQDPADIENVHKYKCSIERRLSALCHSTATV
As to conditions: kinase ULK2; 10 µM; read-out: score (%).

Structures are written as SMILES. Where two headings read alike, the source gives them in different places.

These results are taken from article PMC4457528, “Identification of Novel Small Molecule Inhibitors of Oncogenic RET Kinase” (PLoS ONE, 2015).

T4 sequence (Q14289 whole entry): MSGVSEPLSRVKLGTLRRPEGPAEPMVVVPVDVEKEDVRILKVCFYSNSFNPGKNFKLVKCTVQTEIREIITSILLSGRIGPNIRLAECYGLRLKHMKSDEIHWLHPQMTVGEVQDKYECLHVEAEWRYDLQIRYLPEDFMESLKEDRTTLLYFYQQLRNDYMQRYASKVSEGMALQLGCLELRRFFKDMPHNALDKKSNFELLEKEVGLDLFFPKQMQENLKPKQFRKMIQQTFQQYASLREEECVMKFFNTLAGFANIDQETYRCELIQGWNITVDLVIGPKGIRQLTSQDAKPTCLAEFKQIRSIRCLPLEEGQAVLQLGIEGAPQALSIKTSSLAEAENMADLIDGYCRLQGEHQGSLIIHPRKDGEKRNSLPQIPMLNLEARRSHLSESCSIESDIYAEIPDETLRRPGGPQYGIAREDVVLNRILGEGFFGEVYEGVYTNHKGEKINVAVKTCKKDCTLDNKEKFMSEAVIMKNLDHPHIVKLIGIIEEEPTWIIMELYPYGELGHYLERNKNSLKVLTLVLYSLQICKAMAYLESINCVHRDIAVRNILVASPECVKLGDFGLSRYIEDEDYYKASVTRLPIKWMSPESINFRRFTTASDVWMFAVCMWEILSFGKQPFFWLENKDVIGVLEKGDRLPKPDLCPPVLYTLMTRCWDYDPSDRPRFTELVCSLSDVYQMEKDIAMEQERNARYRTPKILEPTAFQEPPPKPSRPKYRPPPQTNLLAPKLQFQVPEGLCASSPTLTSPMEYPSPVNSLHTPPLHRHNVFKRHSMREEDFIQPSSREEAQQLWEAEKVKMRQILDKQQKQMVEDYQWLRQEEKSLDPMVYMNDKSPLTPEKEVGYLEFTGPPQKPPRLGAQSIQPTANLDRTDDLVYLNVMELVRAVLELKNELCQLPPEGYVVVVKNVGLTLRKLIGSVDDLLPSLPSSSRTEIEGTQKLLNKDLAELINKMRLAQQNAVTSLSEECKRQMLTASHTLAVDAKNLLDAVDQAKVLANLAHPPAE
T2 sequence (Q9UM73 19-1620): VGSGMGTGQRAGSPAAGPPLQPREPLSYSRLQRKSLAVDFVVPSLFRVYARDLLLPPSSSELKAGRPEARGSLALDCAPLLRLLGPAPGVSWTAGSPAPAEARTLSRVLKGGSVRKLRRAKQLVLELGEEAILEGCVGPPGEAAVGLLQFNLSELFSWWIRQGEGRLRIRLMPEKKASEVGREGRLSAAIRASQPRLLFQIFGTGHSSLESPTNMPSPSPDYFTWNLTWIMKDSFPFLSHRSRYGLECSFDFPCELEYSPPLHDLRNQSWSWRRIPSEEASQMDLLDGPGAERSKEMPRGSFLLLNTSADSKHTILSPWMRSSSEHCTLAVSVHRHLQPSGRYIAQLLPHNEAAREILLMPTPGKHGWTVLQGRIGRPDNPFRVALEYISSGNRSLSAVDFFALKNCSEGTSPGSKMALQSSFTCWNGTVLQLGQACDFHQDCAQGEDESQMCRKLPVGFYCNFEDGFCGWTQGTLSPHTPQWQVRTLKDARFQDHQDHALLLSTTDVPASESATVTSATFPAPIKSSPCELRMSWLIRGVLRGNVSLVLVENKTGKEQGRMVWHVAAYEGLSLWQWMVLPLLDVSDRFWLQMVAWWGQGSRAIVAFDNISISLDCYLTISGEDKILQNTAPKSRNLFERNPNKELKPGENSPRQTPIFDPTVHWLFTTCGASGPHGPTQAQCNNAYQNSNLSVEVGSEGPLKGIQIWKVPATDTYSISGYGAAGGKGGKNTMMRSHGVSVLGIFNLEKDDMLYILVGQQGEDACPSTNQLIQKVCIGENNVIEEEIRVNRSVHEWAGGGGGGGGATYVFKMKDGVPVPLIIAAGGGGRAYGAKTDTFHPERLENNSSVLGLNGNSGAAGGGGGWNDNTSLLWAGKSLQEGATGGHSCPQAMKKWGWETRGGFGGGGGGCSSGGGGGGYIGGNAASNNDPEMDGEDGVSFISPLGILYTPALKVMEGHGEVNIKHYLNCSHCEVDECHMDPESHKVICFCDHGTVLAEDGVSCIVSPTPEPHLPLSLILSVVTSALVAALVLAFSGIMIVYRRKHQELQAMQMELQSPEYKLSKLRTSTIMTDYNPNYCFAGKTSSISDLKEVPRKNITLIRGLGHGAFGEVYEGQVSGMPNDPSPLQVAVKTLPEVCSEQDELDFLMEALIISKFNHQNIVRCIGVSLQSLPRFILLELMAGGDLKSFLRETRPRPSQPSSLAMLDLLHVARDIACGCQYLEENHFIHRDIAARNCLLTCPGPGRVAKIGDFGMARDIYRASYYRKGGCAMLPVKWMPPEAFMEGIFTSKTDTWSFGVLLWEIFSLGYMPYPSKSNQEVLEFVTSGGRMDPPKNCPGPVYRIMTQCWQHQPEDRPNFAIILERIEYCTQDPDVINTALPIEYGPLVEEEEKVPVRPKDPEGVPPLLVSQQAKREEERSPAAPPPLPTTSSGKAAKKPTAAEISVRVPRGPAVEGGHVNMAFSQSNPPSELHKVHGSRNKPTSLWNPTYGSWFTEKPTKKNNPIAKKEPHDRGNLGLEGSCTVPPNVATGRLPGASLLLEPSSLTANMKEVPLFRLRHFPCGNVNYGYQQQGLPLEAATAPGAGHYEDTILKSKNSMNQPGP
T3 sequence (Q07912 whole entry): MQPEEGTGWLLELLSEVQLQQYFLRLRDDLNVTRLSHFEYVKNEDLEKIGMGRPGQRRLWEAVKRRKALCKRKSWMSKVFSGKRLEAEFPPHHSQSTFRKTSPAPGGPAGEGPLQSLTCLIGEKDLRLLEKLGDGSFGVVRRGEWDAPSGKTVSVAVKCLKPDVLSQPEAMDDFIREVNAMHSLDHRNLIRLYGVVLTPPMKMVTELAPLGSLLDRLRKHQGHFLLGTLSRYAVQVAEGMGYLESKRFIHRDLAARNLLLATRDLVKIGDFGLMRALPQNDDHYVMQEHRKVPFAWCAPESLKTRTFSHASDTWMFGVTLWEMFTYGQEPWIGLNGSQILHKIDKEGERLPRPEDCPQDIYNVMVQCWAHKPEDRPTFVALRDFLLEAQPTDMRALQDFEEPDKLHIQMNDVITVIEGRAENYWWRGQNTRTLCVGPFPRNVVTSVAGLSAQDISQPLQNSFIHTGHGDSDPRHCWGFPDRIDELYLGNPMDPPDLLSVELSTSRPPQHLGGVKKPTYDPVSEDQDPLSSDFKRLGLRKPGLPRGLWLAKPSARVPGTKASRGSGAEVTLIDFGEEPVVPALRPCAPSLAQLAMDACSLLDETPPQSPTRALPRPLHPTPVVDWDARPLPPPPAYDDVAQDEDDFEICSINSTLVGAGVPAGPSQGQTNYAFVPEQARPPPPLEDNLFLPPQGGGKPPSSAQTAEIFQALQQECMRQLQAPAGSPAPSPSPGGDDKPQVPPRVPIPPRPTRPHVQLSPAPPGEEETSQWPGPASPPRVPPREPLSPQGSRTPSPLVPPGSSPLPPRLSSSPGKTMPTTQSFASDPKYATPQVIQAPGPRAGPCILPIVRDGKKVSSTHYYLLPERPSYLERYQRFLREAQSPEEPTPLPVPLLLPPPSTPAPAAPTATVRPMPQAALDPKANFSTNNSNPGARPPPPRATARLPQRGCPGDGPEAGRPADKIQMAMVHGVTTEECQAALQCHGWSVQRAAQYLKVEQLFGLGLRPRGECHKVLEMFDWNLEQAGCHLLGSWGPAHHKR
T1 sequence (Q00526 whole entry): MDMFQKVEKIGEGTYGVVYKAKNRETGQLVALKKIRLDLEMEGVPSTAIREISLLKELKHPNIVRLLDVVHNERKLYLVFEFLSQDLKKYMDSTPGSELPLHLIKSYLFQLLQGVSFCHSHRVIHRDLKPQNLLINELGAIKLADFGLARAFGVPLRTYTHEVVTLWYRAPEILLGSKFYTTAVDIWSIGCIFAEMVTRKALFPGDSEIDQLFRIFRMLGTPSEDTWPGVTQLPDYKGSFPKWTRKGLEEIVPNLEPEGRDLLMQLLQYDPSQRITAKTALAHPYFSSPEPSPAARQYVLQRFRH

As for `CCN1CCN(Cc2ccc(NC(=O)c3ccc(C)c(NC(=O)c4cncc(-c5cccs5)c4)c3)cc2C(F)(F)F)CC1` [ALW-II-41-27], the “score (%)” value in assay [1] was “nb (Hits values higher than 30% were considered negative (no binding: nb))”. In addition, the remaining binding at 10 µM in assay [2] was greater than 30%; in assay [3] (kinase TNK2, 10 µM), 2.1%; in assay [4] (PYK2, 10 µM), 2.4%; in assay [5], greater than 30%; in assay [6] (ABL1(M351T)) it was 0.55%; in assay [7], greater than 30%.
In the case of `CCN1CCN(Cc2ccc(NC(=O)c3ccc(C)c(/C=C/c4cnc5[nH]ccc5c4Cl)c3)cc2C(F)(F)F)CC1` [HG-6-63-01, (E)-3-(2-(4-chloro-1H-pyrrolo[2,3-b]pyridin-5-yl)vinyl)-N-(4-((4-ethylpiperazin-1-yl)methyl)-3-(trifluoromethyl)phenyl)-4-methylbenzamide], the “score (%)” value in assay [1] was “nb (Hits values higher than 30% were considered negative (no binding: nb))”. Further, the remaining binding at 10 µM was greater than 30% in assay [2]; 0.5% in assay [3] (TNK2, 10 µM); 5.5% in assay [4] (PTK2B, 10 µM); 28% in assay [5]; 0.1% in assay [6] (ABL1(M351T)); 27% in assay [7].
As to `CCN1CCN(Cc2ccc(NC(=O)c3ccc(C)c(C#Cc4cccnc4)c3)cc2C(F)(F)F)CC1` [XMD15-44], in assay [1], the “score (%)” value amounted to 24%. Besides, the remaining binding at 10 µM in assay [2] amounted to 23%; in assay [3] (kinase TNK2, 10 µM), 11%; in assay [4] (kinase PYK2, 10 µM), 0.4%; in assay [5], 41%; in assay [6] (ABL1(M351T)-phosphorylated), 2.6%; in assay [7], 50%.
